Source: patent US20200247812A1 (Integral Biosciences Private Limited, priority 2018, published 2020)
Counter-ions that a name gives are not always drawn.

Key:
ALK 5 = target: T1, ALK 5 (Homo sapiens, UniProt P36897); assay: In vitro kinase assay (ALK5 IC50, LanthaScreen Terbium labeled TR-FRET); type: biochemical; settings: TGF-β kinase 6 nM, ATP 10 μM, read-out: Enzyme Activity ALK 5 IC50
T1 sequence (P36897 34-503): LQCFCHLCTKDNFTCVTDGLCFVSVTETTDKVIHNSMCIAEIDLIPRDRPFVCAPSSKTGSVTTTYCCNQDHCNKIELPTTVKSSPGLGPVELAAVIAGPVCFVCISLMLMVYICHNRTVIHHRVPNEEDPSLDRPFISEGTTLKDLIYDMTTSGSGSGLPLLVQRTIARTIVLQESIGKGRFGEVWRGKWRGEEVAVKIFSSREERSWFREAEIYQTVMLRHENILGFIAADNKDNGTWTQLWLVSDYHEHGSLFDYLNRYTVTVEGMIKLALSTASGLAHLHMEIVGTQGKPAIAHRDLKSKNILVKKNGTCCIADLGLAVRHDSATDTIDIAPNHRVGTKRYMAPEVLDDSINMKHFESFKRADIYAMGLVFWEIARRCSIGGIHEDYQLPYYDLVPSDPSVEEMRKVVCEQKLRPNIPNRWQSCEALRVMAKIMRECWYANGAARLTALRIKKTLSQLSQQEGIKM
Outline: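 LanthaScreen Tb TR-FRET: ALK5 (6 nM) preincubated 10 min with 3-fold diluted compounds, then 10 μM ATP and 200 nM fluorescent PolyGT substrate added for 1 h at room temperature. Stopped with EDTA/Tb antibody; 520/495 nm emission read. IC50 from four-parameter fit versus DMSO and no-enzyme controls.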

A549 = assay: Cell viability assay (resazurin), A549; type: cell-based; settings: Homo sapiens, 72-144 hr
Protocol: (§1) Different cell lines such as pancreatic, (MIA PaCa-2; ATCC®CRL-1420™ & and Panc-1; CRL-1469™), liver carcinoma (HepG2; ATCC® HB-8065™), lung epithelial carcinoma (A549; ATCC® CCL-185™) and others were seeded in their respective medium (DMEM, Cat #10569044, MEM, Cat #41090036; RPMI, Cat #22400089; all with 10% FBS, Gibco, ThermoFisher) at a cell count of 3000 cells per 100 μl per well in a 96 well edge plate (167425; ThermoFisher). Cells were allowed to grow at 37° C. for 24 hr in 5% CO2 (culture conditions) in a Nuaire incubator (humidified). Serially diluted compounds (100 μl) were added to the culture plate 24 hr later and the cultures were further incubated in culture conditions for specified time depending on doubling time of specific cell line (ranging from 72-144 hr). Experiment was terminated at the completion of incubation time with the drug by replacing the medium with 100 μl of 1 mM of resazurin (R7017; Sigma) prepared in respective culture medium and the plates were further incubated in culture conditions for 4 hr. Fluorescence was then measured using a multimodal plate reader (Biotek Synergy Neo) at an excitation wavelength of 535 nm and emission wavelength of 590 nm to obtain relative fluorescence units. Data analysis was done by subtracting the background fluorescence (only medium blank) value from each reading and then normalizing with the vehicle control (DMSO treated cells) to obtain percent survival/proliferation. Percent survival at different doses was used to calculate IC50 by fitting the curve to the “four-parameter variable slope logistic model” using Prism Graph Pad.

HepG2 = assay: Cell viability assay (resazurin), HepG2; type: cell-based; settings: Homo sapiens, 72-144 hr
Protocol: as §1

Panc-1 = assay: Cell viability assay (resazurin), Panc-1; type: cell-based; settings: Homo sapiens, 72-144 hr
Protocol: Different cell lines such as pancreatic, (MIA PaCa-2; ATCC®CRL-1420™ & and Panc-1; CRL-1469™), liver carcinoma (HepG2; ATCC® HB-8065™), lung epithelial carcinoma (A549; ATCC® CCL-185™) and others were seeded in their respective medium (DMEM, Cat #10569044, MEM, Cat #41090036; RPMI, Cat #22400089; all with 10% FBS, Gibco, ThermoFisher) at a cell count of 3000 cells per 100 μl per well in a 96 well edge plate (167425; ThermoFisher). Cells were allowed to grow at 37° C. for 24 hr in 5% CO2 (culture conditions) in a Nuaire incubator (humidified). Serially diluted compounds (100 μl) were added to the culture plate 24 hr later and the cultures were further incubated in culture conditions for specified time depending on doubling time of specific cell line (ranging from 72-144 hr). […] Fluorescence was then measured using a multimodal plate reader (Biotek Synergy Neo) at an excitation wavelength of 535 nm and emission wavelength of 590 nm to obtain relative fluorescence units. Data analysis was done by subtracting the background fluorescence (only medium blank) value from each reading and then normalizing with the vehicle control (DMSO treated cells) to obtain percent survival/proliferation. […]

MDA_MB-231 = assay: Cell viability assay (resazurin), MDA_MB-231; type: cell-based; settings: Homo sapiens, MDA-MB-231, 72-144 hr
Protocol: as §1

22Rv1 = assay: Cell viability assay (resazurin), 22Rv1; type: cell-based; settings: Homo sapiens, 72-144 hr
Protocol: as §1

A427 = assay: Cell viability assay (resazurin), A427; type: cell-based; settings: Homo sapiens, A-427, 72-144 hr
Protocol: as §1

MCF7 = assay: Cell viability assay (resazurin), MCF7; type: cell-based; settings: Homo sapiens, 72-144 hr
Protocol: as §1

human PBMC's = assay: Viability in CD3e/CD28 activated human PBMC's (resazurin); type: cell-based; settings: 72 hr
Protocol: IC50 values of compounds for determining viability in CD3e/CD28 activated human PBMC's (hPBMC-34033, Cat # CC-2702; Lonza) cultured in LGM3 medium, Cat # CC #3211; Lonza). Human PBMC's (0.25×10^6 cells/well) were activated with Anti-human CD3e (0.5 μg/ml, coated overnight at 4° C.; Cat #16-0037-81, eBioscience) and then incubated with serial dilutions of compounds (3 fold, 8 point dose response starting at 30 μM) for 30 min at 37° C., 5% CO2 in an incubator (cell culture conditions) prior to treating them with Anti-human CD28 (0.25 μg/ml soluble; Cat #16-0289-81, eBiosciences). Human PBMC's were further incubated under cell culture conditions for 72 hr following which experiment was terminated by replacing the medium with 100 μl of 1 mM of resazurin (R7017; Sigma) prepared in culture medium and the plates were further incubated in culture conditions for 4 hr. Fluorescence was then measured using a multimodal plate reader (Biotek Synergy Neo) at an excitation wavelength of 535 nm and emission wavelength of 590 nm to obtain relative fluorescence units. Data analysis was done by subtracting the background fluorescence (only medium blank) value from each reading and then normalizing with the vehicle control (DMSO treated cells) to obtain percent survival/proliferation. Percent survival at different doses was used to calculate IC50 by fitting the curve to the “four-parameter variable slope logistic model” using Prism Graph Pad.

HCT116 = assay: Cell viability assay (resazurin), HCT116; type: cell-based; settings: Homo sapiens, HCT-116, 72-144 hr
Protocol: as §1

AsPC-1 = assay: Cell viability assay (resazurin), AsPC-1; type: cell-based; settings: Homo sapiens, ASPC1, 72-144 hr
Protocol: as §1

Panc-10.05 = assay: Cell viability assay (resazurin), Panc-10.05; type: cell-based; settings: Homo sapiens, Panc1005, 72-144 hr
Protocol: as §1

[1] = system: phosphorylation of Smad-2 in THP-1 cells; assay: Inhibition of phosphorylation of Smad-2 in THP-1 cells (Phospho-Smad2 ELISA); type: cell-based
MV-4-11 = assay: Cell viability assay (resazurin), MV-4-11; type: cell-based; settings: Homo sapiens, MV4-11, 72-144 hr
Protocol: as §1

THP1 = assay: Cell viability assay (resazurin), THP1; type: cell-based; settings: Homo sapiens, THP-1, 72-144 hr
Protocol: as §1

[2] = system: phosphorylation of Smad-2 in THP-1 cells; assay: Inhibition of phosphorylation of Smad-2 in THP-1 cells (Phospho-Smad2 ELISA); type: cell-based; settings: 1.5 h, human TGF-β 20 ng/ml, 90 min, read-out: pSmad2 IC50
Protocol: IC50 values of compounds for determining inhibition of phosphorylation of Smad-2 in THP-1 cells (ATCC, Cat # ATCC® TIB-202™) cultured in RPMI medium, (Cat #22400089; with 10% FBS, Gibco, ThermoFisher). THP-1 cells (1.0×10^6 cells/well; 6 well plate) were incubated with serial dilutions of compounds (3 fold, 5 point dose response starting at 10 μM) for 60 min at 37° C., 5% CO2 in an incubator (cell culture conditions) prior to treating them with Recombinant Human TGF-β (20 ng/ml soluble; Cat #100-21, Peprotech) for 90 min. The cells were then pelleted and processed for protein estimation and evaluation of pSmad using ELISA kit from Cell Signaling (PathScan(R) Phospho-Smad2 (Ser465/467) Sandwich ELISA; Cat #7348C) as per manufacturer's protocol. Data analysis was done by subtracting the background absorbance (only negative control) value from each reading and then normalizing with the vehicle control (DMSO treated cells) to obtain percent levels of pSmad-2. Percent inhibition thus obtained (by subtracting expression levels of pSmad from 100) at different doses was used to calculate IC50 by fitting the curve to the “four-parameter variable slope logistic model” using Prism Graph Pad.

Row | SMILES | IC50 (ALK 5) [µM] | IC50 (A549) [µM] | IC50 (HepG2) [µM] | IC50 (Panc-1) [µM] | IC50 (22Rv1) [µM] | IC50 (MCF7) [µM] | IC50 (HCT116) [µM] | IC50 (AsPC-1) [µM] | IC50 (Panc-10.05) [µM] | IC50 (MV-4-11) [µM] | IC50 (THP1) [µM] | IC50 [2] [µM] | IC50 (MDA_MB-231) [µM] | IC50 (A427) [µM] | IC50 (human PBMC's) [µM] | % Inhibition of pSmad2 ([1]; 3 μg) [%] | % Inhibition of pSmad2 ([1]; 10 μg) [%]
1 | CC(C)c1[nH]c(=O)c(-c2cc(Cl)ccc2F)cc1Nc1ccncc1C(N)=O [Compound 1.43, 4-((5-(5-chloro-2-fluorophenyl)-2-isopropyl-6-oxo-1,6-dihydropyridin-3-yl)amino)nicotinamide] | ≤ 0.5 | > 30 | > 30 | > 30 | > 30 | > 10 | – | – | – | – | – | – | > 30 | > 30 | > 30 | – | –
2 | CN(C)c1[nH]c(=O)c(-c2cc(Cl)ccc2F)cc1Nc1ccncc1C(N)=O [Compound 1.32, 4-((5-(5-chloro-2-fluorophenyl)-2-(dimethylamino)-6-hydroxypyridin-3-yl)amino)nicotinamide] | ≤ 0.5 | > 30 | – | – | – | > 10 | > 30 | > 30 | > 30 | – | – | – | > 30 | > 30 | – | 51.3 | 50.5
3 | C[C@@H](CO)NC(=O)c1cnccc1Nc1cc(-c2cc(Cl)ccc2F)c(=O)[nH]c1N(C)C [Compound 1.10, (S)-4-((5-(5-chloro-2-fluorophenyl)-2-(dimethylamino)-6-hydroxypyridin-3-yl)amino)-N-(1-hydroxypropan-2-yl)nicotinamide] | ≤ 0.5 | – | – | – | – | – | – | – | – | – | – | – | – | – | 24.5 | 36.7 | 45.1
4 | CN(C)c1[nH]c(=O)c(-c2cc(Cl)ccc2F)cc1Nc1ccnc2[nH]ccc12 [Compound 1.12, 5-((1H-pyrrolo[2,3-b]pyridin-4-yl)amino)-3-(5-chloro-2-fluorophenyl)-6-(dimethylamino)pyridin-2-ol hydrochloride] | ≤ 0.5 | 2.77 | 2.64 | – | 1.53 | – | 2.64 | 1.82 | 2.21 | – | 0.635 | – | 2.75 | 3.1 | 18.2 | 51.6 | 48.4
5 | CC(=O)Nc1cc(Nc2cc(-c3cc(Cl)ccc3F)c(=O)[nH]c2N(C)C)ccn1 [Compound 1.40, N-(4-((5-(5-chloro-2-fluorophenyl)-2-(dimethylamino)-6-oxo-1,6-dihydropyridin-3-yl)amino)pyridin-2-yl)acetamide] | ≤ 0.5 | 28.5 | 12.6 | – | – | – | 13.4 | – | 28.5 | – | 6.09 | – | 12.6 | 15.2 | – | – | –

Second part, led by results:

Row | IC50 (ALK 5) [µM] | IC50 (A549) [µM] | IC50 (HepG2) [µM] | IC50 (Panc-1) [µM] | IC50 (22Rv1) [µM] | IC50 (MCF7) [µM] | IC50 (HCT116) [µM] | IC50 (AsPC-1) [µM] | IC50 (Panc-10.05) [µM] | IC50 (MV-4-11) [µM] | IC50 (THP1) [µM] | IC50 [2] [µM] | SMILES | IC50 (MDA_MB-231) [µM] | IC50 (A427) [µM] | IC50 (human PBMC's) [µM] | % Inhibition of pSmad2 ([1]; 3 μg) [%] | % Inhibition of pSmad2 ([1]; 10 μg) [%]
6 | ≤ 0.5 | – | 18.2 | – | – | > 30 | > 30 | – | – | 29.2 | > 30 | – | CCc1[nH]c(=O)c(-c2cc(Cl)ccc2F)cc1Nc1ccnc(NC(C)=O)c1 [Compound 1.70, N-(4-((5-(5-chloro-2-fluorophenyl)-2-ethyl-6-oxo-1,6-dihydropyridin-3-yl)amino)pyridin-2-yl)acetamide] | > 30 | > 30 | – | – | –
7 | ≤ 0.5 | – | 15.7 | – | – | 18.7 | > 30 | – | – | 16.3 | 13 | – | CC(=O)Nc1cc(Nc2cc(-c3cc(Cl)ccc3F)c(=O)[nH]c2C2CC2)ccn1 [Compound 1.69, N-(4-((5-(5-chloro-2-fluorophenyl)-2-cyclopropyl-6-oxo-1,6-dihydropyridin-3-yl)amino)pyridin-2-yl)acetamide] | 15.3 | > 30 | – | – | –
8 | ≤ 0.5 | – | > 30 | – | – | > 30 | > 30 | > 30 | – | – | – | 1.33 | CC(C)c1[nH]c(=O)c(-c2cc(Cl)ccc2F)cc1Nc1ccnc2c1CC(=O)N2 [Compound 1.61, 4-((5-(5-chloro-2-fluorophenyl)-2-isopropyl-6-oxo-1,6-dihydropyridin-3-yl)amino)-1,3-dihydro-2H-pyrrolo[2,3-b]pyridin-2-one] | > 30 | – | – | – | –
